“And” between values parts separate entries of the source, which are not always exact repeats. Equal values may be shown once. “Also recorded” adds a separate entry of the source.

We go through 1 substance from US20100158973A1 (HADASIT MEDICAL RESEARCH SERVICES & DEVELOPMENT LlIMITED, priority 2006, published 2010).

Assay [1] has as its system SD/Hsd male rats, surgically induced infarct. Briefly: Echocardiography before and 7 days after LAD ligation. To be noted: for LVEDD (left ventricular end-diastolic diameter) / LVESD (left ventricular end-systolic diameter) / SF (shortening fraction): CBD group.
Experimental: In the following experiment 14 SD/Hsd male rats weighing 275-350 g were used.
Rats were anesthetized with ketamine (10%): xylazine (2%), 0.85:0.15 IM 0.1 ml/kg. Animals were intubated and ventilated with a small animal respirator (Harvard Sc.). The heart was exposed via left sternotomy and the LAD was reversibly occluded for 30 minutes using a snare fashioned from an encircling silk ligature and a section of 5 French feeding tube. Coronary occlusion and reperfusion were verified by visual inspection. Following reperfusion the released ligature was left in situ. The chest was then closed in layers using uninterrupted sutures. Rats were extubated, received 30-50 cc saline subcutaneously to replace lost body fluids, and were treated with Rymadil (5 mg/kg, i.p.) analgesia for 3 days. […] The drug and the vehicle solutions were prepared in separate laboratories, ensuring that the staff (e.g. echocardiography and pathology) was blinded to the treatment arm. After 7 days, animals were re-anesthetized and ventilated as described above. The LAD was permanently re-occluded, and the heart harvested for further analysis.
Rats were anesthetized with Ketamine (10%):Xylasine (2%), 0.85:0.15 IM 0.1 ml/kg and the chest cavity was shaved. Echo was carried out prior to surgery and 1 week after, prior to sacrifice of the animals.
Echo imaging was performed using a GE Vivid3 platform, equipped with a 13 MHz linear epiaortic transducer (General Electric, Haifa, Israel). The probe was positioned in a left parasternal position, and 2D imaging of the heart in the short axis was performed using a high frame rate. This image was used to guide an M-mode cursor down the medial axis of the left ventricle. Measurements were performed in triplicates using the leading edge convention for myocardial borders.
The following parameters were measured: Left ventricular end-diastolic diameter (LVEDD) Left ventricular end-systolic diameter (LVESD); anterior wall thickness in diastole and systole (AWTd, AWTs); and Heart rate (HR).
Shortening fraction (SF) was calculated using the above variables.
Assay [2] concerns ApoE−/− mice. Kind of assay: Size of atherosclerotic plaques in the aorta of ApoE−/− mice.
Experimental: ApoE knock-out (ApoE^−/−) mice are known to spontaneously develop atherosclerosis, which may be enhanced by a high-fat diet. Twelve- to fourteen-week-old male and female ApoE ApoE^−/− mice on a C57B1/6 background were fed a high-fat diet (Takland adjusted calories, Western-type diet: 2.1% fat, 15% cholesterol, 19.5% casein) for 12 weeks.
Blood samples were collected in capillary tubes following twelve hours of fasting, and immediately centrifuged for plasma removal. Plasma samples were assayed for total cholesterol using conventional colorimetric assays. Mice were then sacrificed, and their aorta were extracted and examined for the presence and size of atherosclerotic lesions (plaques).
(§1) Control mice were injected with Cremophor:ethanol:saline 1:1:18. Plasma triglyceride levels were assayed following twelve hours fasting using an enzymatic reagent (Sigma™).
Assay [3] concerns SD/Hsd male rats, surgically induced infarct. Briefly: Infarct (scar) size after LAD ligation, Evans blue/TTC staining and planimetry. It is filed as in vivo.
Assay [4] has as its system ApoE−/− mice. Briefly: LDL cholesterol levels in ApoE−/− mice (Friedewald formula). To be noted: high-fat diet, 20 IP injections of 5 mg/kg.
Experimental: (§2) Twelve- to fourteen-week-old male and female ApoE ApoE^−/− mice on a C57B1/6 background were fed a high-fat diet (Takland adjusted calories, Western-type diet: 2.1% fat, 15% cholesterol, 19.5% casein) for 12 weeks.
Blood samples were collected in capillary tubes following twelve hours of fasting, and immediately centrifuged for plasma removal. Plasma samples were assayed for total cholesterol using conventional colorimetric assays.
as §1
LDLc=TC−triglycerides levels/5-HDLc
Statistical analysis was by ANOVA test (ANalysis Of VAriance between groups).
Assay [5] relates to ApoE−/− mice. Kind of assay: Plasma triglyceride levels in ApoE−/− mice on high-fat diet. To be noted: 20 IP injections of 5 mg/kg, 12 h fasting.
Experimental: as §2
Blood samples were collected in capillary tubes following twelve hours of fasting, and immediately centrifuged for plasma removal.
as §1
Assay [6] relates to SD/Hsd male rats, surgically induced infarct. Kind of assay: Histopathology of infarcted hearts (hematoxylin and eosin, Masson trichrome). It is filed as in vivo.
Where [7] appears, read: Day 7 after LAD ligation, 5 mg/kg IP daily.

Consider Cannabidiol [CBD], for which, in assay [1] (Day 0 (baseline)), the “LVEDD (left ventricular end-diastolic diameter)” value is on record as 0.70 ± 0.06 mm, the “LVESD (left ventricular end-systolic diameter)” value is given as 0.36 ± 0.08 mm and the “SF (shortening fraction)” value was found to be 48.27±8.6%. In assay [1] (setting [7]), the “LVEDD (left ventricular end-diastolic diameter)” value came out at 0.72 ± 0.05 mm and the “LVESD (left ventricular end-systolic diameter)” value is listed as 0.43 ± 0.07 mm. For the same substance, the “SF (shortening fraction)” value in assay [1] (Day 7 after LAD ligation, 5 mg/kg IP daily, 5 mg/kg) amounted to 39.7±8.22%. The “LV function in M mode echocardiography” value in assay [1] (FIG. 4D, CBD-treated animal) is “preserved LV function”. Moreover, in assay [2] (first experiment, 12 CBD-treated mice, control 5.5%), the “atherosclerotic plaques, average % of the aorta area” value is listed as 3.18%. In addition, the “plaque area, % of the total aorta area” value in assay [2] (second experiment, control 10.6%) worked out at 5.09%. Moreover, the “% infarct size” value in assay [3] (individual animals of CBD-treated group) is 16.3% and 15.3% and 14.6% and 13.9% and 6.5% and 7.5% and 7.6% (2×) and 8.1% and 7.8%. The “mean infarct size as percent of area at risk” value in assay [3] (rats, 5 mg/kg IP 1 h before surgery and daily, 7 days, control 28.2±7.0%) is given as 9.6±3.9%. Also, the “lowering of LDL levels vs control” value in assay [4] came out at 17%. For the same substance, the LDL cholesterol level in assay [4] (calculated by Friedewald formula) was 1300 mg/dL. In addition, in assay [5], the “lowering of plasma triglyceride levels compared with control-treated mice” value is 59%. The “inflammation in heart histology” value in assay [6] (FIG. 4B, animal treated with CBD) was “almost total lack of inflammation”. The “granulation tissue formation with early collagen deposition vs control” value in assay [6] (Masson trichrome staining) is given as “similar; also recorded: did not affect”. Besides, in assay [6] (graded by pathologist, control animals 2-3), the “inflammatory infiltrate grade (leukocytes infiltrating the border of the infarcted zone)” value is 1+ or nullnil (0).
